Usually IC50 stands for the midpoint of a concentration-inhibition curve. By CC50 is commonly meant the concentration giving 50% cytotoxicity.

Data set [1] in a line: Selectivity index, ratio of CC50 for human HepG2.2.15 cells to IC50 for decrease in hepatitis B viral HBeAg secretion in human HepG2.2.15 cells. The data set is classed as functional.
The subject of data set [2] is Hepatitis B virus. Kind of data set: Antiviral activity against hepatitis B viral in human HepG2.2.15 cells assessed as viral DNA replication after 9 days by real-time PCR analysis (reference value: 6.12 +/- 1.46 AU). The format is functional, HepG2 2.2.15. For orientation: In qPCR the cycle at which signal appears reflects the starting amount.
Data set [3] in a line: Selectivity index, ratio of CC50 for human HepG2.2.15 cells to IC50 for decrease in hepatitis B viral surface antigen HBsAg secretion in human HepG2.2.15 cells. The data set is classed as functional.
The subject of data set [4] is Hepatitis B virus. Kind of data set: Antiviral activity against hepatitis B viral in human HepG2.2.15 cells assessed as viral HBcAg level after 9 days by ELISA (reference value: 14.16 +/- 1.92 ng/ml). The format is functional, HepG2 2.2.15. On the technique in general: An ELISA detects its analyte on a solid surface through an enzyme-linked reagent.
Data set [5] has as its system Hepatitis B virus. As to the kind of experiment: Antiviral activity against hepatitis B viral in human HepG2.2.15 cells assessed as HBeAg secretion after 9 days by ELISA. The format is functional, organism-based. Conditions: HepG2 2.2.15, 216 h.
The nature of data set [6]: Cytotoxicity against human HepG2.2.15 cells assessed as cell death after 9 days by MTS assay. The data set is classed as cell-based, HepG2 2.2.15.
The subject of data set [7] is Hepatitis B virus. As to the kind of experiment: Antiviral activity against hepatitis B viral in human HepG2.2.15 cells assessed as surface antigen HBsAg secretion after 9 days by ELISA. The data set is classed as functional, organism-based. The note with it: HepG2 2.2.15, 216 h.
For data set [8], the system named is Hepatitis B virus. As to the kind of experiment: Antiviral activity against hepatitis B viral in human HepG2.2.15 cells assessed as viral surface antigen HBsAg level after 9 days by ELISA (reference value: 721 +/- 32 pg/ml). The data set is classed as functional, HepG2 2.2.15.
Data set [9] deals with Sodium/bile acid cotransporter NTCP (Homo sapiens) (UniProt Q14973). As to the kind of experiment: Induction of human NTCP receptor inhibition-mediated autophagy in HBV-infected human HepG2.2.15 cells assessed as MDC positive cells at 20 uM after 12 hrs by […] (reference value: 0.60%). Further details: scale not given: the % may be the effect or the level left.

Data set [10] deals with HepG2 2.2.15. As to the kind of experiment: Induction of autophagy in HBV-infected human HepG2.2.15 cells assessed as decrease in NTCP level after 12 to 24 hrs by Western blot analysis. The format is functional. Background: A western blot detects proteins with antibodies after separation by electrophoresis.
Data set [11] concerns HepG2 2.2.15. As to the kind of experiment: Induction of autophagy in HBV-infected human HepG2.2.15 cells assessed as decrease in HBx level after 12 to 24 hrs by Western blot analysis. The format is functional.
In data set [12] the target is Sodium/bile acid cotransporter NTCP (Homo sapiens) (UniProt Q14973). Kind of data set: Induction of human NTCP receptor inhibition-mediated autophagy in HBV-infected human HepG2.2.15 cells assessed as MDC positive cells at 20 uM after 24 hrs by […] (reference value: 0.60%). Further details: scale not given: the % may be the effect or the level left.

For data set [13], the system named is HepG2 2.2.15. As to the kind of experiment: Induction of autophagy in HBV-infected human HepG2.2.15 cells assessed as decrease in APOA1 level after 12 to 24 hrs by Western blot analysis. The format is functional.
A short description of data set [14]: Antiproliferative activity against human HepG2.2.15 cells assessed as cell growth at 20 uM after 0 to 24 hrs by MTT assay. The format is cell-based. Conditions: hepg2 2.2.15, 20 µM.

Calls of active or inactive are those of the source. The rule behind the calls is not given here. A value given as a limit tells only on which side of the number the result lay.

Chain of Sodium/bile acid cotransporter NTCP (Homo sapiens) (Q14973 whole entry, looked up): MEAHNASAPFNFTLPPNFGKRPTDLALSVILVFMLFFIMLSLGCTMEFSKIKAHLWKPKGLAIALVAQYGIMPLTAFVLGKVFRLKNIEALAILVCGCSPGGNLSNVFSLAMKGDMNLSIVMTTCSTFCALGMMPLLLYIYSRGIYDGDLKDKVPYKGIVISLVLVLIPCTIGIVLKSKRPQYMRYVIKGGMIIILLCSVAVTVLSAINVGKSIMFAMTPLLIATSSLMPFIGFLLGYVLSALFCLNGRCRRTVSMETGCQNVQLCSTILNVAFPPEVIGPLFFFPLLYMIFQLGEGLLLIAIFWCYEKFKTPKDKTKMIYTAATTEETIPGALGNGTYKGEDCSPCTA

`Nc1ncnc2c1ncn2CCOCP(=O)(O)O` [ADEFOVIR]: the “Selectivity Index” value in [1] is recorded as 2.27; in [3], 1.9. In addition, the values for the Activity in the data set on Hepatitis B virus [2], in the data set with Hepatitis B virus [4] and in the data set on Hepatitis B virus [8] were 4.12 a.u, 12100 pg/mL and 571 pg/mL, respectively. Further, the IC50 is 215 µM in the data set with Hepatitis B virus [5] and 257 µM in the data set on Hepatitis B virus [7]. In addition, the half-maximal cytotoxic concentration (CC50) at 216 h in data set [6] is 490 µM.
In the case of `COC(=O)Nc1nc2nc(C(=O)c3ccc(O)c(OC)c3)ccc2[nH]1`, the Activity in [9] was 9.3%; with Hepatitis B virus [2], 2.46 a.u; in the data set on Hepatitis B virus [4], 8140 pg/mL; in [12] it was 31.1%; in data set [14] it was “Toxic”; in the data set with Hepatitis B virus [8], 258 pg/mL. The “Selectivity Index” value was 7.86 in data set [1] and 11 in data set [3]. For the same compound, the inhibition result in the data set with HepG2 2.2.15 [10], in the data set with HepG2 2.2.15 [11] and with HepG2 2.2.15 [13] was “Active” in each case. Moreover, the results for the IC50 in the data set on Hepatitis B virus [5] and in the data set on Hepatitis B virus [7] were 25.1 µM and 17.9 µM, respectively. Further, the cytotoxic concentration (CC50) at 216 h in [6] is 197 µM.
In the case of `COC(=O)Nc1nc2cc(C(=O)c3cccc(OC)c3)ccc2[nH]1`, the “Selectivity Index” value in data set [1] was determined as 0.24; in [3] it was 1.19. Further, the IC50 in the data set with Hepatitis B virus [5] was determined as 479 µM; with Hepatitis B virus [7], 97.5 µM. For the same compound, the CC50 at 216 h in [6] was 117 µM.
For `COC(=O)Nc1nc2cc(C(=O)c3ccc(O)c(OC)c3)ccc2[nH]1`, in that order: 0.49, 3.55, 216 µM, 29.7 µM and 105 µM.
For `COC(=O)Nc1nc2cc(C(=O)c3cccc(F)c3)ccc2[nH]1`, in that order: 0.05, 0.09, 397 µM, 245 µM and 21.2 µM.
For `COC(=O)Nc1nc2cc(C(=O)c3ccco3)ccc2[nH]1`, the half-inhibitory concentration (IC50) in the data set on Hepatitis B virus [5] and in the data set on Hepatitis B virus [7] was more than 1000 µM each time. Besides, the CC50 at 216 h in [6] is more than 1000 µM.
In the case of `COC(=O)Nc1nc2cc(C(=O)c3ccc(OC)c(OC)c3)ccc2[nH]1`, the “Selectivity Index” value was 0.15 in [1] and 0.25 in data set [3]. For the same compound, the IC50 was 312 µM with Hepatitis B virus [5] and 190 µM in the data set on Hepatitis B virus [7]. Besides, the CC50 at 216 h in data set [6] was 48.5 µM.
For `COC(=O)Nc1nc2nc(C(=O)c3ccc(OC)c(OC)c3)ccc2[nH]1`, in that order: 1.3, 2.74, 78.4 µM, 37.3 µM and 102 µM.
Regarding `COC(=O)Nc1nc2cc(C(=O)c3ccc(F)cc3)ccc2[nH]1` [FLUBENDAZOLE], the “Selectivity Index” value worked out at 4.75 in [1] and 2.5 in data set [3]. Moreover, the Activity was determined as 3.76 a.u with Hepatitis B virus [2], 10100 pg/mL in the data set on Hepatitis B virus [4] and 361 pg/mL in the data set on Hepatitis B virus [8].
For `COC(=O)Nc1nc2ccc(C(=O)c3ccccc3)cc2[nH]1` [MEBENDAZOLE], the IC50 with Hepatitis B virus [5] and with Hepatitis B virus [7] was more than 1000 µM each time. Moreover, the CC50 at 216 h in data set [6] is more than 1000 µM.
As to `COC(=O)Nc1nc2cc(C(=O)c3ccccn3)ccc2[nH]1`, the IC50 in the data set on Hepatitis B virus [5] and in the data set with Hepatitis B virus [7] was more than 1000 µM in each case. Moreover, the CC50 at 216 h in [6] is more than 1000 µM.
As for `COC(=O)Nc1nc2nc(C(=O)c3cccc(OC)c3)ccc2[nH]1`, the “Selectivity Index” value amounted to 0.47 in [1] and 1.89 in data set [3]. For the same compound, the values for the IC50 with Hepatitis B virus [5] and in the data set with Hepatitis B virus [7] were 167 µM and 41.2 µM, respectively. The 50% cytotoxic concentration (CC50) at 216 h in [6] is 78.1 µM.

For the origin of these results see ChEMBL document CHEMBL3399962, “Design and synthesis of a novel candidate compound NTI-007 targeting sodium taurocholate cotransporting polypeptide [NTCP]-APOA1-HBx-Beclin1-mediated autophagic pathway in HBV therapy” (Bioorg Med Chem, 2015).
